Source: US20050250752A1, “Cembranoids with chemopreventive activity” (priority 2002, published 2005)

Tests used:
[1] = system: papillomas (mouse skin carcinogenesis induced by DMBA/TPA); test: Two-stage mouse skin carcinogenesis model induced by DMBA/TPA; format: in vivo, mouse (female ICR); conditions: topical 85 nm 1 hour before TPA, ICR mice
Protocol: In the two-stage mouse skin carcinogenesis model induced by DMBA/TPA, the animals (specific pathogen-free female ICR, 6 weeks old) were divided into 5 groups, 15 mice each. The back of each mouse was shaved with surgical clippers, and the mice were topically treated with DMBA (100 μg, 390 nmol) in acetone (0.1 ml) as an initiation treatment. For the positive control group, 1 week after initiation with DMBA, mice were promoted by the application with TPA (1 μg, 1.7 nmol) in acetone (0.1 ml) twice a week. The other four groups received a topical application of each of the sarcophine semi-synthetic derivatives (85 nm) 1 hour before application of the tumor promoter. The incidence of papillomas was observed weekly for 20 weeks. The percentage of mice bearing papillomas and the average number of papillomas per mouse were recorded.

Raji cells = test: Viability of treated Raji cells (Trypan Blue staining); format: cell-based
Protocol: (§1) The inhibition of EBV-EA activation was assayed using Raji cells (virus non-producer type). The indicator cells (Raji, 1×10^6/ml) were incubated at 37° C. for 48 h in 1 ml of medium containing n-butyric acid (4 mmol), TPA(12-O-tetradecanoylphorbol 13-acetate)(32 pmol=20 ng in 2 μl DMSO) as inducer and various amounts of test compounds in 5 μl DMSO. Smears were made from the cell suspension, and the activated cells, which were stained by EBV-EA positive serum from nasopharygeal carcinoma patients were detected by an indirect immunofluorescence technique. For each compound, assays were performed in triplicate. The average EBV-EA induction of the test compounds was expressed as a relative ratio to the control experiment (100%), which was carried out only with n-butyric acid plus TPA. The viability of treated Raji cells was assayed by the Trypan Blue staining method.

[2] = system: Epstein-Barr virus early antigen (EBV-EA) of Raji cells induced by tumor promoter (TPA); test: Inhibition of EBV-EA activation induced by TPA in Raji cells; format: cell-based; conditions: TPA 32 pmol, Raji cells, 48 h
Protocol: as §1

[3] = x 1000 mol ratio/TPA (32 nmol/mL)

## C/C(CO)=C1\CC/C(C)=C/CCC2(C)OC2CC/C(C)=C/C1O (stereo not drawn) [Compound 10]
[1]; week 1 of promotion
  Papilloma Bearer (%): 0.0%
  Papillomas/mouse: 0.0
[1]; week 2 of promotion
  Papilloma Bearer (%): 0.0%
  Papillomas/mouse: 0.0
[1]; week 3 of promotion
  Papilloma Bearer (%): 0.0%
  Papillomas/mouse: 0.0
[1]; week 4 of promotion
  Papilloma Bearer (%): 0.0%
  Papillomas/mouse: 0.0
[1]; week 5 of promotion
  Papilloma Bearer (%): 0.0%
  Papillomas/mouse: 0.0
[1]; week 6 of promotion
  Papilloma Bearer (%): 0.0%
  Papillomas/mouse: 0.0
[1]; week 7 of promotion
  Papilloma Bearer (%): 0.0%
  Papillomas/mouse: 0.0
[1]; week 8 of promotion
  Papilloma Bearer (%): 13.3%
  Papillomas/mouse: 0.5
[1]; week 9 of promotion
  Papilloma Bearer (%): 13.3%
  Papillomas/mouse: 0.9
[1]; week 10 of promotion
  Papilloma Bearer (%): 26.6%
  Papillomas/mouse: 1.3
[1]; week 11 of promotion
  Papilloma Bearer (%): 33.3%
  Papillomas/mouse: 1.8
[1]; week 12 of promotion
  Papilloma Bearer (%): 40.0%
  Papillomas/mouse: 2.1
[1]; week 13 of promotion
  Papilloma Bearer (%): 46.6%
  Papillomas/mouse: 2.3
[1]; week 14 of promotion
  Papilloma Bearer (%): 53.3%
  Papillomas/mouse: 2.5
[1]; week 15 of promotion
  Papilloma Bearer (%): 60.0%
  Papillomas/mouse: 2.7
[1]; week 16 of promotion
  Papilloma Bearer (%): 73.3%
  Papillomas/mouse: 3.1
[1]; week 17 of promotion
  Papilloma Bearer (%): 73.3%
  Papillomas/mouse: 3.6
[1]; week 18 of promotion
  Papilloma Bearer (%): 80.0%
  Papillomas/mouse: 4.0
[1]; week 19 of promotion
  Papilloma Bearer (%): 80.0%
  Papillomas/mouse: 4.6
[1]; week 20 of promotion
  Papilloma Bearer (%): 80.0%
  Papillomas/mouse: 4.8
Raji cells; x 10 mol ratio/TPA
  viability percentage of Raji cells (indicator cells): > 80%
Raji cells; x 100 mol ratio/TPA
  viability percentage of Raji cells (indicator cells): > 80%
Raji cells; x 500 mol ratio/TPA
  viability percentage of Raji cells (indicator cells): > 80%
Raji cells; [3]
  viability percentage of Raji cells (indicator cells): 60%
[2]; x 10 mol ratio/TPA
  EBV-EA induction, percentage relative to the positive control value (100%): 94.1%
[2]; x 100 mol ratio/TPA
  EBV-EA induction, percentage relative to the positive control value (100%): 75.5%
[2]; x 500 mol ratio/TPA
  EBV-EA induction, percentage relative to the positive control value (100%): 57.3%
[2]; [3]
  EBV-EA induction, percentage relative to the positive control value (100%): 9.6%

## CC1=CC=C([C@@](C)(O)CO)C[C@H](O)C(C)=CCCC2(C)OC2CC1 (stereo partly drawn) [Compound 12, 7,8-Epoxy-1,3,11-cembratriene-13S(β),15R(α),16-triol]
[1]; week 1 of promotion
  Papilloma Bearer (%): 0.0%
  Papillomas/mouse: 0.0
[1]; week 2 of promotion
  Papilloma Bearer (%): 0.0%
  Papillomas/mouse: 0.0
[1]; week 3 of promotion
  Papilloma Bearer (%): 0.0%
  Papillomas/mouse: 0.0
[1]; week 4 of promotion
  Papilloma Bearer (%): 0.0%
  Papillomas/mouse: 0.0
[1]; week 5 of promotion
  Papilloma Bearer (%): 0.0%
  Papillomas/mouse: 0.0
[1]; week 6 of promotion
  Papilloma Bearer (%): 0.0%
  Papillomas/mouse: 0.0
[1]; week 7 of promotion
  Papilloma Bearer (%): 0.0%
  Papillomas/mouse: 0.0
[1]; week 8 of promotion
  Papilloma Bearer (%): 13.3%
  Papillomas/mouse: 0.2
[1]; week 9 of promotion
  Papilloma Bearer (%): 20.0%
  Papillomas/mouse: 0.5
[1]; week 10 of promotion
  Papilloma Bearer (%): 26.6%
  Papillomas/mouse: 1.1
[1]; week 11 of promotion
  Papilloma Bearer (%): 33.3%
  Papillomas/mouse: 1.5
[1]; week 12 of promotion
  Papilloma Bearer (%): 33.3%
  Papillomas/mouse: 2.0
[1]; week 13 of promotion
  Papilloma Bearer (%): 40.0%
  Papillomas/mouse: 2.2
[1]; week 14 of promotion
  Papilloma Bearer (%): 46.6%
  Papillomas/mouse: 2.7
[1]; week 15 of promotion
  Papilloma Bearer (%): 53.3%
  Papillomas/mouse: 3.1
[1]; week 16 of promotion
  Papilloma Bearer (%): 60.0%
  Papillomas/mouse: 3.7
[1]; week 17 of promotion
  Papilloma Bearer (%): 66.6%
  Papillomas/mouse: 4.0
[1]; week 18 of promotion
  Papilloma Bearer (%): 73.3%
  Papillomas/mouse: 4.1
[1]; week 19 of promotion
  Papilloma Bearer (%): 73.3%
  Papillomas/mouse: 4.4
[1]; week 20 of promotion
  Papilloma Bearer (%): 80.0%
  Papillomas/mouse: 4.6
Raji cells; x 10 mol ratio/TPA
  viability percentage of Raji cells (indicator cells): > 80%
Raji cells; x 100 mol ratio/TPA
  viability percentage of Raji cells (indicator cells): > 80%
Raji cells; x 500 mol ratio/TPA
  viability percentage of Raji cells (indicator cells): > 80%
Raji cells; [3]
  viability percentage of Raji cells (indicator cells): 60%
[2]; x 10 mol ratio/TPA
  EBV-EA induction, percentage relative to the positive control value (100%): 93.8%
[2]; x 100 mol ratio/TPA
  EBV-EA induction, percentage relative to the positive control value (100%): 74.6%
[2]; x 500 mol ratio/TPA
  EBV-EA induction, percentage relative to the positive control value (100%): 55.8%
[2]; [3]
  EBV-EA induction, percentage relative to the positive control value (100%): 5.9%
